Results reported in US20150157642A1, “COSMETIC METHOD FOR CHANGING THE APPEARANCE OF EYES” (priority 2011, published 2015).

System: eyelids
Assay: topical application to the eyelids, eyelid retraction / eye-widening effect
Type: in vivo
Conditions: topically applied, alone or in combination
Source text: Topical treatments to which the current application is directed include ointments, creams, and solutions that contain one or more of the compounds travoprost, unoprostone, latanoprost, and bimatoprost, alone or in combination, and/or one or more chemically-related compounds and may also include pure forms of various additional types of prostaglandin, synthetic prostaglandin, and synthetic prostaglandin anologues. These ointments and solutions are topically applied to eyelids in order to treat ptosis and/or to improve facial appearance. The ointments and solution may include, in addition to the above-mentioned active ingredients, stabilizers, buffering compounds, salts, carriers, viscosity enhancers, colorants, emollients, emulsifiers, bactericidal and germicidal agents, preservatives, and other ingredients that improve shelf life, application, consistency, and compatibility with topical application, among other things. […] Either pure prostaglandin, synthetic prostaglandin, or synthetic prostaglandin analogues may be rubbed into the eyelid tissues or a relatively concentrated solution of prostaglandin in any of various organic solvents, including ethanol, or ethanol-water mixtures, can be applied to produce the effect. Prostaglandin, synthetic prostaglandin, or synthetic prostaglandin analogs may be additionally included in various eye shadows and other cosmetic products that are routinely applied to eyelids in order to produce the eye-widening cosmetic effect, as well as in many different mixtures, suspensions, solutions, powders, ointments, creams, and other substances.

Structure (SMILES) | eyelid retraction (ameliorating ptosis and/or improving facial appearance)
CCNC(=O)CCCC=CCC1C(O)CC(O)C1C=CC(O)CCc1ccccc1 (stereo not shown) [bimatoprost, 7-[3,5-dihydroxy-2-(3-hydroxy-5-phenyl-pent-1-enyl)-cyclopentyl]-N-ethyl-hept-5-enamide] | cause the eyelids to retract more completely
CC(C)OC(=O)CCC/C=C\C[C@@H]1[C@@H](CC[C@@H](O)CCc2ccccc2)[C@H](O)C[C@@H]1O [latanoprost, isopropyl (Z)-7-[(1R,2R,3R,5S)-3,5-dihydroxy-2-[(3R)3-hydroxy-5-phenylpentyl]-cyclopentyl]hept-5-enoate] | cause the eyelids to retract more completely
CC(C)OC(=O)CCCC=CCC1C(O)CC(O)C1C=CC(O)COc1cccc(C(F)(F)F)c1 (stereo not shown) [travoprost, propan-2-yl 7-[3,5-dihydroxy-2-[3-hydroxy-4-[3-(trifluoromethyl)phenoxy]-but-1-enyl]-cyclopentyl]hept-5-enoate] | cause the eyelids to retract more completely
CCCCCCCC(=O)CC[C@@H]1[C@@H](C/C=C\CCCC(=O)OC(C)C)[C@@H](O)C[C@H]1O [unoprostone, isopropyl (Z)-7-[(1R,2R,3R,5S)-3,5-dihydroxy-2-(3-oxodecyl)cyclopentyl]hept-5-enoic acid] | cause the eyelids to retract more completely
